Laboratory results published in paper PMC6255753, “Investigation of the phosphorylation of Bacillus subtilis LTA synthases by the serine/threonine kinase PrkC” (Scientific Reports, 2018).

Key:
Assay in all cases: thermal shift titration (SYPRO Orange), Hill fit
Assay type in all cases: binding
Settings in all cases: read-out: Apparent KD
eYfnI (YfnI) [1] = biological target: T1, eYfnI (YfnI) (Bacillus subtilis, UniProt Q797B3, T297A)
T1 construct: gene ltaS1; extracellular catalytic domain (borders not given), N-terminal 6His tag removed by AcTEV; E. coli Rosetta; pProEX-eYfnI
Source text: (§1) thermal shift titration (SYPRO Orange), Hill fit on eYfnI (YfnI)

eYfnI (YfnI) [2] = biological target: T2, eYfnI (YfnI) (Bacillus subtilis, UniProt Q797B3)
T2 construct: gene ltaS1; extracellular catalytic domain (borders not given), N-terminal 6His tag removed by AcTEV; E. coli Rosetta; pProEX-eYfnI
Source text: as §1

eYfnI (YfnI) [3] = biological target: T3, eYfnI (YfnI) (Bacillus subtilis, UniProt Q797B3, T297D)
T3 construct: gene ltaS1; extracellular catalytic domain (borders not given), N-terminal 6His tag removed by AcTEV; E. coli Rosetta; pProEX-eYfnI
Source text: as §1

T2 sequence (Q797B3 215-639): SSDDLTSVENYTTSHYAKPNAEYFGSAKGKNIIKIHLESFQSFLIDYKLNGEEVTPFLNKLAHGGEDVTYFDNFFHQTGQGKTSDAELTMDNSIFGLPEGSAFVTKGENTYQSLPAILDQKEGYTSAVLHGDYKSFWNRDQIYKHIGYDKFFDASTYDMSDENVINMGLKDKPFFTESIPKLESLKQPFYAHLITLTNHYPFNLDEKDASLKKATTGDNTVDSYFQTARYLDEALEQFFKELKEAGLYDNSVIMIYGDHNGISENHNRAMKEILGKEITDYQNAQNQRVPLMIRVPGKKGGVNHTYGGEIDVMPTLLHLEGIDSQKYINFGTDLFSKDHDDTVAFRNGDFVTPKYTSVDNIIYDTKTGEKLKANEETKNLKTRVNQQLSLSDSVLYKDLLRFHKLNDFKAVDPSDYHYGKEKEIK
T1 sequence (Q797B3 215-639 T297A): as the sequence (Q797B3 215-639) above, with T83A counted along it
T3 sequence (Q797B3 215-639 T297D): as the sequence (Q797B3 215-639) above, with T83D counted along it

Kd (eYfnI (YfnI) [1]): 8 mM | Kd (eYfnI (YfnI) [2]): 2.9 mM | Kd (eYfnI (YfnI) [3]): 5.4 mM
Compound: O=P(O)(O)OCC(O)CO (stereo not drawn) [GroP]
